# Measured values reported in PubChem BioAssay (NCI).
#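 Values below derive from 48-hour exposures of cells grown in 96-well plates, with endpoints linearly interpolated between the two concentrations bracketing the appropriate inhibition level. GI50 is the concentration that inhibits growth by half. TGI: concentration producing complete growth inhibition.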
# What was measured:
# Assay in all cases: NCI-60 cell line screen, 48 h
# NCI-H460 lung = test system: NCI-H460 lung
# SK-OV-3 ovarian = test system: SK-OV-3 ovarian
# M14 melanoma = test system: M14 melanoma
# RXF 393 renal = test system: RXF 393 renal
# SF-268 CNS = test system: SF-268 CNS
# EKVX NSCLC = test system: EKVX NSCLC
# NCI-H23 lung = test system: NCI-H23 lung
# HT29 colon = test system: HT29 colon
# BT-549 breast = test system: BT-549 breast
# A498 renal = test system: A498 renal
# KM12 colon = test system: KM12 colon
# HOP-92 NSCLC = test system: HOP-92 NSCLC
# MALME-3M melanoma = test system: MALME-3M melanoma
# LOX IMVI melanoma = test system: LOX IMVI melanoma
# IGROV1 ovarian = test system: IGROV1 ovarian
# PC-3 prostate = test system: PC-3 prostate
# MOLT-4 leukemia = test system: MOLT-4 leukemia
# SF-295 CNS = test system: SF-295 CNS
# 786-0 renal = test system: 786-0 renal
# CAKI-1 renal = test system: CAKI-1 renal
# HCT-15 colon = test system: HCT-15 colon
# SK-MEL-5 melanoma = test system: SK-MEL-5 melanoma
# COLO 205 colon = test system: COLO 205 colon
# HL-60(TB) leukemia = test system: HL-60(TB) leukemia
# NCI-H226 lung = test system: NCI-H226 lung
# SK-MEL-2 melanoma = test system: SK-MEL-2 melanoma
# MCF7 breast = test system: MCF7 breast
# UO-31 renal = test system: UO-31 renal
# SW-620 colon = test system: SW-620 colon
# OVCAR-4 ovarian = test system: OVCAR-4 ovarian
# UACC-257 melanoma = test system: UACC-257 melanoma
# MDA-MB-231 breast = test system: MDA-MB-231 breast
# HCC-2998 colon = test system: HCC-2998 colon
# MDA-MB-435 = test system: MDA-MB-435
# U251 CNS = test system: U251 CNS
# RPMI-8226 leukemia = test system: RPMI-8226 leukemia
# HS 578T breast = test system: HS 578T breast
# SR leukemia = test system: SR leukemia
# A549 NSCLC = test system: A549 NSCLC
# K-562 leukemia = test system: K-562 leukemia
# SNB-75 CNS = test system: SNB-75 CNS
# HCT-116 colon = test system: HCT-116 colon
# SNB-19 CNS = test system: SNB-19 CNS
# NCI-H522 lung = test system: NCI-H522 lung
# SK-MEL-28 melanoma = test system: SK-MEL-28 melanoma
# UACC-62 melanoma = test system: UACC-62 melanoma
# OVCAR-5 ovarian = test system: OVCAR-5 ovarian
# MDA-MB-468 breast = test system: MDA-MB-468 breast
# TK-10 renal = test system: TK-10 renal
# CCRF-CEM leukemia = test system: CCRF-CEM leukemia
# SN12C renal = test system: SN12C renal
# DU-145 prostate = test system: DU-145 prostate
# T-47D breast = test system: T-47D breast
# ACHN renal = test system: ACHN renal
# OVCAR-8 ovarian = test system: OVCAR-8 ovarian
# SF-539 CNS = test system: SF-539 CNS
# NCI/ADR-RES ovarian = test system: NCI/ADR-RES ovarian
# OVCAR-3 ovarian = test system: OVCAR-3 ovarian
# HOP-62 NSCLC = test system: HOP-62 NSCLC
smiles,measurement,setting,value
CSc1nc(-c2cccc(C)c2)c2cc(-c3ccccc3)n(C)c2n1,GI50,NCI-H460 lung,3.98 µM
same,TGI,NCI-H460 lung,19.1 µM
same,GI50,SK-OV-3 ovarian,11.2 µM
same,TGI,SK-OV-3 ovarian,52.1 µM
same,GI50,M14 melanoma,4.56 µM
same,TGI,M14 melanoma,51.4 µM
same,GI50,RXF 393 renal,7.91 µM
same,TGI,RXF 393 renal,47 µM
same,GI50,SF-268 CNS,11.2 µM
same,TGI,SF-268 CNS,51.1 µM
same,GI50,EKVX NSCLC,4.88 µM
same,TGI,EKVX NSCLC,39.1 µM
same,GI50,NCI-H23 lung,12.2 µM
same,TGI,NCI-H23 lung,68 µM
same,GI50,HT29 colon,3.98 µM
same,TGI,HT29 colon,25.4 µM
same,GI50,BT-549 breast,7.11 µM
same,TGI,BT-549 breast,33.5 µM
same,GI50,A498 renal,27 µM
same,TGI,A498 renal,94.9 µM
same,GI50,KM12 colon,5.41 µM
same,TGI,KM12 colon,64.7 µM
same,GI50,HOP-92 NSCLC,3.92 µM
same,TGI,HOP-92 NSCLC,30.7 µM
same,GI50,MALME-3M melanoma,9.16 µM
same,TGI,MALME-3M melanoma,38.2 µM
same,GI50,LOX IMVI melanoma,5.44 µM
same,TGI,LOX IMVI melanoma,19.4 µM
same,GI50,IGROV1 ovarian,6.43 µM
same,TGI,IGROV1 ovarian,> 100 µM
same,GI50,PC-3 prostate,7.9 µM
same,TGI,PC-3 prostate,> 100 µM
same,GI50,MOLT-4 leukemia,4.47 µM
same,TGI,MOLT-4 leukemia,37.7 µM
same,GI50,SF-295 CNS,5.06 µM
same,TGI,SF-295 CNS,18.2 µM
same,GI50,786-0 renal,14.5 µM
same,TGI,786-0 renal,47.8 µM
same,GI50,CAKI-1 renal,5.08 µM
same,TGI,CAKI-1 renal,> 100 µM
same,GI50,HCT-15 colon,4.9 µM
same,TGI,HCT-15 colon,24.8 µM
same,GI50,SK-MEL-5 melanoma,3.59 µM
same,TGI,SK-MEL-5 melanoma,12.8 µM
same,GI50,COLO 205 colon,7.28 µM
same,TGI,COLO 205 colon,26.9 µM
same,GI50,HL-60(TB) leukemia,3.54 µM
same,TGI,HL-60(TB) leukemia,35.4 µM
same,GI50,NCI-H226 lung,12.8 µM
same,TGI,NCI-H226 lung,50 µM
same,GI50,SK-MEL-2 melanoma,3.62 µM
same,TGI,SK-MEL-2 melanoma,17.5 µM
same,GI50,MCF7 breast,5.88 µM
same,TGI,MCF7 breast,41.8 µM
same,GI50,UO-31 renal,6.78 µM
same,TGI,UO-31 renal,67 µM
same,GI50,SW-620 colon,4.87 µM
same,TGI,SW-620 colon,> 100 µM
same,GI50,OVCAR-4 ovarian,20.5 µM
same,TGI,OVCAR-4 ovarian,> 100 µM
same,GI50,UACC-257 melanoma,16.7 µM
same,TGI,UACC-257 melanoma,50.4 µM
same,GI50,MDA-MB-231 breast,7.42 µM
same,TGI,MDA-MB-231 breast,30.2 µM
same,GI50,HCC-2998 colon,13.9 µM
same,TGI,HCC-2998 colon,60.8 µM
same,GI50,MDA-MB-435,2.86 µM
same,TGI,MDA-MB-435,8.45 µM
same,GI50,U251 CNS,4.65 µM
same,TGI,U251 CNS,33.8 µM
same,GI50,RPMI-8226 leukemia,4.82 µM
same,TGI,RPMI-8226 leukemia,37.8 µM
same,GI50,HS 578T breast,7 µM
same,TGI,HS 578T breast,78.1 µM
same,GI50,SR leukemia,3.17 µM
same,TGI,SR leukemia,> 100 µM
same,GI50,A549 NSCLC,7.01 µM
same,TGI,A549 NSCLC,> 100 µM
same,GI50,K-562 leukemia,3.13 µM
same,TGI,K-562 leukemia,> 100 µM
same,GI50,SNB-75 CNS,3.17 µM
same,TGI,SNB-75 CNS,27.4 µM
same,GI50,HCT-116 colon,4.17 µM
same,TGI,HCT-116 colon,21.7 µM
same,GI50,SNB-19 CNS,14.6 µM
same,TGI,SNB-19 CNS,93.6 µM
same,GI50,NCI-H522 lung,3.41 µM
same,TGI,NCI-H522 lung,17.2 µM
same,GI50,SK-MEL-28 melanoma,12.2 µM
same,TGI,SK-MEL-28 melanoma,97.7 µM
same,GI50,UACC-62 melanoma,3.99 µM
same,TGI,UACC-62 melanoma,17.9 µM
same,GI50,OVCAR-5 ovarian,18.6 µM
same,TGI,OVCAR-5 ovarian,> 100 µM
same,GI50,MDA-MB-468 breast,3.08 µM
same,TGI,MDA-MB-468 breast,15.6 µM
same,GI50,TK-10 renal,28.8 µM
same,TGI,TK-10 renal,91.9 µM
same,GI50,CCRF-CEM leukemia,4 µM
same,TGI,CCRF-CEM leukemia,36.1 µM
same,GI50,SN12C renal,10.7 µM
same,TGI,SN12C renal,44.7 µM
same,GI50,DU-145 prostate,18.1 µM
same,TGI,DU-145 prostate,> 100 µM
same,GI50,T-47D breast,4.59 µM
same,TGI,T-47D breast,41.3 µM
same,GI50,ACHN renal,12.9 µM
same,TGI,ACHN renal,75.1 µM
same,GI50,OVCAR-8 ovarian,16.3 µM
same,TGI,OVCAR-8 ovarian,> 100 µM
same,GI50,SF-539 CNS,6.35 µM
same,TGI,SF-539 CNS,21.8 µM
same,GI50,NCI/ADR-RES ovarian,3.58 µM
same,TGI,NCI/ADR-RES ovarian,30.9 µM
same,GI50,OVCAR-3 ovarian,4.31 µM
same,TGI,OVCAR-3 ovarian,30.7 µM
same,GI50,HOP-62 NSCLC,8.77 µM
same,TGI,HOP-62 NSCLC,48.9 µM
